Assay results published in patent US6974671B1, “Methods for indentifying compounds that modulate gluconeogenesis through the binding of CREB to the PGC-1 promoter” (Salk Institute for Biological Studies, priority 2001, dated 2005).

Columns and labels:
[1] = tested on: PGC-1 promoter; assay: Transient assay of HepG2 cells with PGC-1 luciferase reporter; assay type: cell-based, human
Description: (§1) Plasmids. Expression plasmids pZEO-ACREB^22 and pcDNA3-PGC-1^24 have been described previously. Liver specific A-CREB transgene was constructed by inserting A-CREB cDNA into a liver specific albumin promoter/enhancer plasmid^5. To construct luciferase expression plasmids −490PEPCKLuc and −355PEPCKLuc BamHI/BglII fragments of the PEPCK promoter region containing 490 or 355 bp of the mouse PEPCK 5′-flanking region, respectively, were cloned into the pGL3 basic luciferase reporter vector (Promega, St. Luis Obispo). PGC-1 reporter mPGCLuc was constructed by inserting a […] fragment of the mouse PGC-1 promoter containing 170 bp of the 5′-flanking region and 68 bp of Exon 1 into the pGL3 vector.
(§2) Cell culture and transient transfection assays. Human hepatoma HepG2 cells were transfected using the Lipofectamine 2000 reagent (GIBCO BRL) according to manufacturers instructions (500 ng of indicator plasmid/well). Where indicated, expression plasmids encoding A-CREB (pZeo-ACREB)^22 or PGC-1 (pcDNA3-PGC-1)^24 were cotransfected (50 ng or 800 ng plasmid/well, respectively). Cotransfections were performed with a constant DNA amount by adding the empty pcDNA3 vector (Invitrogen). Cells were treated with Forskolin (10 μM) and/or Dexamethasone (100 nM) or insulin (10 nM) for 14 h. […]

[2] = tested on: PEPCK promoter; assay: Transient assay of HepG2 cells with PEPCK luciferase reporter; assay type: cell-based, human; settings: HepG2, PEPCK reporter plasmid, cAMP agonist
Description: as §1, §2

Row | Molecule | effect on PGC-1 reporter activity ([1]; HepG2, insulin 10 nM) | induction of PGC-1 promoter activity ([1]; HepG2, PGC-1 luciferase reporter (-170 to +68), forskolin 10 μM) | stimulation of PEPCK promoter activity [2]
1 | insulin | blocked |  | 
2 | C=C[C@@]1(C)CC(=O)[C@]2(O)[C@@]3(C)[C@@H](O)CCC(C)(C)[C@@H]3[C@H](O)[C@H](OC(C)=O)[C@@]2(C)O1 [cAMP agonist, Forskolin] |  | 3–4 fold | 3–4 fold
